Measurements as given in publication PMC6273344, “Biochemical Characteristics of Three Laccase Isoforms from the Basidiomycete Pleurotus nebrodensis” (Molecules, 2015).
Counter-ions that a name gives are not always drawn.

Assays:
Details in all cases: McIlvaine buffer at optimum pH (3.0); ABTS 125-5000 uM; O2 as co-substrate
Lac1 = tested on: Lac1
Lac3 = tested on: Lac3
Lac2 = tested on: Lac2

In the case of CCn1c(=NN=c2sc3cc(S(=O)(=O)O)ccc3n2CC)sc2cc(S(=O)(=O)O)ccc21 [ABTS, 2,2′-azino-bis(3-ethylbenzothiazoline-6-sulfonic acid) diammonium salt], the Km (Lac1) is reported as 160 µM, the Km (Lac3) is reported as 104 µM and the Km (Lac2) is reported as 550 µM.
